Where a name gives a salt, the structure may show the parent alone.
Assays:
human mPGES-1 = human mPGES-1 (Homo sapiens (Human), UniProt O14684); assay: mPGES-1 inhibitory activity test; assay type: biochemical; details: for IC50: microsomes of CHO-K1 cells expressing human mPGES-1, PGH2 1 μM, PGE2 by HTRF, read-out: mPGES-1 inhibition (IC50 nM); for inhibition at 0.01 µM: 10 nM test compound; for inhibition at 0.1 µM: 100 nM test compound
Summary of the method: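 PGE2 formation was quantified by HTRF and reported as percent inhibition at 10 and 100 nM compound or as IC50. The 60-second reaction at 4° C used 1 μM PGH2, after a 20-minute 4° C preincubation of compound (1% DMSO final) with glutathione-supplemented (2.5 mM, pH 7.4) microsomes. The microsomes were from transiently transfected CHO-K1 cells expressing human mPGES-1.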

human A549 cells = assay: Inhibition test of PGE2 production using human A549 cells; assay type: cell-based; details: IL-1β stimulated A549 cells, 24 h, PGE2 by HTRF, read-out: A549 cell inhibition of PGE2 production IC50
Summary of the method: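 PGE2 (HTRF) and PGF2a (EIA) were quantified in medium after 24 h, 37°C IL-1β stimulation (5 ng/well) of human A549 cells that had received test compound 60 min beforehand (0.1% DMSO, 3% FBS RPMI). IC50 relative to the window between IL-1β-stimulated and unstimulated controls.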

human mPGES-1, sequence (O14684 whole entry): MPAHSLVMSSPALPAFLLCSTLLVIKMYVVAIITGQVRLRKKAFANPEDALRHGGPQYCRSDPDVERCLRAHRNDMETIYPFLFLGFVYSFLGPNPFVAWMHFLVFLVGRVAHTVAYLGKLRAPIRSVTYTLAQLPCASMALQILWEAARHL

| Compound | IC50 (human mPGES-1) [nM] | IC50 (human A549 cells) [nM] | inhibition at 0.01 µM (human mPGES-1) [%] | inhibition at 0.1 µM (human mPGES-1) [%] |
| --- | --- | --- | --- | --- |
| CC(C)(C)C(=O)NCc1ccc(Cl)c(C(=O)Nc2cccc3c2cnn3CCCc2ccccc2)c1 [Example 101, 2-Chloro-5-{[(2,2-dimethylpropanoyl)amino]methyl}-N-[1-(3-phenylpropyl)-1H-indazol-4-yl]benzamide] | 4.7 | 8.1 | – | – |
| CC(C)n1ncc2c(NC(=O)c3cc(CNC(=O)C(C)(C)C)ccc3Cl)cccc21 [Example 102, 2-Chloro-5-{[(2,2-dimethylpropanoyl)amino]methyl}-N-[1-(propan-2-yl)-1H-indazol-4-yl]benzamide] | 3.1 | 20.7 | – | – |
| CC(C)(C)C(=O)NCc1ccc(Cl)c(C(=O)Nc2cccc3c2cnn3C2CCOCC2)c1 [Example 104, 2-Chloro-5-{[(2,2-dimethylpropanoyl)amino]methyl}-N-[1-(tetrahydro-2H-pyran-4-yl)-1H-indazol-4-yl]benzamide] | 99.9 | 80.6 | – | – |
| CC(C)(C)C(=O)NCc1ccc(Cl)c(C(=O)Nc2cccc3c2cnn3CC2CCCCO2)c1 (stereo not shown) [Example 105, 2-Chloro-5-{[(2,2-dimethylpropanoyl)amino]methyl}-N-[1-(tetrahydro-2H-pyran-2-ylmethyl)-1H-indazol-4-yl]benzamide] | 1.3 | 11.1 | – | – |
| CC(=O)N1CCC(n2ncc3c(NC(=O)c4cc(CNC(=O)C(C)(C)C)ccc4Cl)cccc32)CC1 [Example 106, N-[1-(1-acetylpiperidin-4-yl)-1H-indazol-4-yl]-2-chloro-5-{[(2,2-dimethylpropanoyl)amino]methyl}benzamide] | 175 | 884 | – | – |
| CC(C)(C)C(=O)NCc1ccc(Cl)c(C(=O)Nc2cccc3c2cnn3CCN2CCOCC2)c1 [Example 107, 2-Chloro-5-{[(2,2-dimethylpropanoyl)amino]methyl}-N-{1-[2-(morpholin-4-yl)ethyl]-1H-indazol-4-yl}benzamide hydrochloride] | 10 | 399 | – | – |
| CC(C)(C)C(=O)NCc1ccc(Cl)c(C(=O)Nc2cccc3c2cnn3CCCCc2ccccc2)c1 [Example 108, 2-Chloro-5-{[(2,2-dimethylpropanoyl)amino]methyl}-N-[1-(4-phenylbutyl)-1H-indazol-4-yl]benzamide] | 11.1 | 20.6 | – | – |
| O=C(Nc1cccc2c1cnn2Cc1ccccc1)c1cc(CNC(=O)C2CC2)ccc1Cl [Example 109, N-(1-benzyl-1H-indazol-4-yl)-2-chloro-5-{[(cyclopropylcarbonyl)amino]methyl}benzamide] | 2.04 | 119 | – | – |
| Cn1ncc2c(NC(=O)c3cc(CNC(=O)C(C)(C)C)ccc3Cl)cccc21 [Example 111, 2-Chloro-5-{[(2,2-dimethylpropanoyl)amino]methyl}-N-(1-methyl-1H-indazol-4-yl)benzamide] | 5.5 | 40.6 | – | – |
| Cn1ncc2c(NC(=O)c3cc(CNC(=O)C4CC4)ccc3Cl)cccc21 [Example 112, 2-Chloro-5-{[(cyclopropylcarbonyl)amino]methyl}-N-(1-methyl-1H-indazol-4-yl)benzamide] | 12.9 | 91.1 | – | – |
| CCn1ncc2c(NC(=O)c3cc(CNC(=O)C(C)(C)C)ccc3Cl)cccc21 [Example 113, 2-Chloro-5-{[(2,2-dimethylpropanoyl)amino]methyl}-N-(1-ethyl-1H-indazol-4-yl)benzamide] | 1.2 | 20.2 | – | – |
| CC(C)(C)CC(=O)NCc1ccc(Cl)c(C(=O)Nc2cccc3c2cnn3-c2cccc(OC(F)(F)F)c2)c1 [Example 121, 2-Chloro-5-{[(3,3-dimethylbutanoyl)amino]methyl}-N-{1-[3-(trifluoromethoxy)phenyl]-1H-indazol-4-yl}benzamide] | – | 10 | 48 | – |
| O=C(Nc1cccc2c1cnn2-c1cccc(OC(F)(F)F)c1)c1cc(CNS(=O)(=O)C2CC2)ccc1Cl [Example 126, 2-Chloro-5-{[(cyclopropylsulfonyl)amino]methyl}-N-{1-[3-(trifluoromethoxy)phenyl]-1H-indazol-4-yl}benzamide] | – | 9.8 | 100 | – |
| CC(C)(C)CC(=O)NCc1ccc(Cl)c(C(=O)Nc2cccc3c2cnn3-c2cccc(OC(F)F)c2)c1 [Example 138, 2-Chloro-N-{1-[3-(difluoromethoxy)phenyl]-1H-indazol-4-yl}-5-{[(3,3-dimethylbutanoyl)amino]methyl}benzamide] | – | 6 | 61 | 100 |
| O=C(Nc1cccc2c1cnn2-c1cccc(OC(F)F)c1)c1cc(CNC(=O)C2(O)CC2)ccc1Cl [Example 141, 2-Chloro-N-{1-[3-(difluoromethoxy)phenyl]-1H-indazol-4-yl}-5-({[(1-hydroxycyclopropyl)carbonyl]amino}methyl)benzamide] | – | 59.4 | 54 | 100 |
| CC(C)(CO)C(=O)NCc1ccc(Cl)c(C(=O)Nc2cccc3c2cnn3-c2cccc(OC(F)F)c2)c1 [Example 143, 2-Chloro-N-{1-[3-(difluoromethoxy)phenyl]-1H-indazol-4-yl}-5-{[(3-hydroxy-2,2-dimethylpropanoyl)amino]methyl}benzamide] | – | 17.4 | 92 | 100 |

These reach a lower IC50 (human A549 cells). Values come first.

| IC50 (human mPGES-1) [nM] | IC50 (human A549 cells) [nM] | inhibition at 0.01 µM (human mPGES-1) [%] | inhibition at 0.1 µM (human mPGES-1) [%] | Compound |
| --- | --- | --- | --- | --- |
| 1.3 | 4.1 | – | – | CC(C)(C)C(=O)NCc1ccc(Cl)c(C(=O)Nc2cccc3c2cnn3CC2CCC2)c1 [Example 99, 2-Chloro-N-[1-(cyclobutylmethyl)-1H-indazol-4-yl]-5-{[(2,2-dimethylpropanoyl)amino]methyl}benzamide] |
| 1 | 1.9 | – | – | CC(C)(C)C(=O)NCc1ccc(Cl)c(C(=O)Nc2cccc3c2cnn3CC2CCCCC2)c1 [Example 100, 2-Chloro-N-[1-(cyclohexylmethyl)-1H-indazol-4-yl]-5-{[(2,2-dimethylpropanoyl)amino]methyl}benzamide] |
| 2.7 | 4 | – | – | CC(C)(C)OC(=O)N1CCC(n2ncc3c(NC(=O)c4cc(CNC(=O)C(C)(C)C)ccc4Cl)cccc32)CC1 [Example 103, tert-Butyl 4-(4-{[(2-chloro-5-{[(2,2-dimethylpropanoyl)amino]methyl}phenyl)carbonyl]amino}-1H-indazol-1-yl)piperidine-1-carboxylate] |
| – | 1.9 | 87 | – | CC(C)(C)CC(=O)NCc1ccc(Cl)c(C(=O)Nc2cccc3c2cnn3-c2ccc(OC(F)(F)F)cc2)c1 [Example 114, 2-Chloro-5-{[(3,3-dimethylbutanoyl)amino]methyl}-N-{1-[4-(trifluoromethoxy)phenyl]-1H-indazol-4-yl}benzamide] |
| – | 1.2 | 61 | – | O=C(Nc1cccc2c1cnn2-c1ccc(OC(F)(F)F)cc1)c1cc(CNC(=O)C2CCCC2)ccc1Cl [Example 115, 2-Chloro-5-{[(cyclopentylcarbonyl)amino]methyl}-N-{1-[4-(trifluoromethoxy)phenyl]-1H-indazol-4-yl}benzamide] |
| – | 0.6 | 68 | 100 | O=C(Nc1cccc2c1cnn2-c1ccc(OC(F)(F)F)cc1)c1cc(CNC(=O)C2(C(F)(F)F)CC2)ccc1Cl [Example 116, 2-Chloro-N-{1-[4-(trifluoromethoxy)phenyl]-1H-indazol-4-yl}-5-[({[1-(trifluoromethyl)cyclopropyl]carbonyl}amino)methyl]benzamide] |
| – | 2.9 | 100 | – | O=C(Nc1cccc2c1cnn2-c1cccc(OC(F)(F)F)c1)c1cc(CNC(=O)C2CCCC2)ccc1Cl [Example 122, 2-Chloro-5-{[(cyclopentylcarbonyl)amino]methyl}-N-{1-[3-(trifluoromethoxy)phenyl]-1H-indazol-4-yl}benzamide] |
| – | 5.1 | 98 | – | O=C(Nc1cccc2c1cnn2-c1cccc(OC(F)(F)F)c1)c1cc(CNC(=O)C2(C(F)(F)F)CC2)ccc1Cl [Example 123, 2-Chloro-N-{1-[3-(trifluoromethoxy)phenyl]-1H-indazol-4-yl}-5-[({[1-(trifluoromethyl)cyclopropyl]carbonyl}amino)methyl]benzamide] |
| – | 4.7 | 64 | – | Cc1ccc(-n2ncc3c(NC(=O)c4cc(CNC(=O)CC(C)(C)C)ccc4Cl)cccc32)cc1Cl [Example 127, 2-Chloro-N-[1-(3-chloro-4-methylphenyl)-1H-indazol-4-yl]-5-{[(3,3-dimethylbutanoyl)amino]methyl}benzamide] |
| – | 1.2 | 67 | – | Cc1ccc(-n2ncc3c(NC(=O)c4cc(CNC(=O)C5(C(F)(F)F)CC5)ccc4Cl)cccc32)cc1Cl [Example 129, 2-Chloro-N-[1-(3-chloro-4-methylphenyl)-1H-indazol-4-yl]-5-[({[1-(trifluoromethyl)cyclopropyl]carbonyl}amino)methyl]benzamide] |
| – | 1.5 | 86 | – | Cc1ccc(-n2ncc3c(NC(=O)c4cc(CNS(=O)(=O)C5CC5)ccc4Cl)cccc32)cc1Cl [Example 132, 2-Chloro-N-[1-(3-chloro-4-methylphenyl)-1H-indazol-4-yl]-5-{[(cyclopropylsulfonyl)amino]methyl}benzamide] |
| – | 1.8 | 73 | 100 | O=C(Nc1cccc2c1cnn2-c1cccc(OC(F)F)c1)c1cc(CNS(=O)(=O)C2CC2)ccc1Cl [Example 144, 2-Chloro-5-{[(cyclopropylsulfonyl)amino]methyl}-N-{1-[3-(difluoromethoxy)phenyl]-1H-indazol-4-yl}benzamide] |

Source: US20250059172A1, “INDAZOLE COMPOUND AND PHARMACEUTICAL” (NIPPON SHINYAKU CO., LTD., priority 2021, published 2025)
